Consider one substance from US7141541B1, “Use of peptides” (University Court of the University of Dundee, priority 1999, dated 2006).

The target in one data set is recombinant human eIF4E (Homo sapiens, UniProt P06730). The data set is described as follows: in vitro binding (pull-down) assay with eIF4E. Conditions: FIG. 4, FIG. 5. As for the experimental part: (§1) Sequences of biotinylated, penetratin-linked peptides. U=Norvaline, a substitution for cysteine. Conserved residues that are important in binding to eIF4E are underlined. b). In vitro binding assay. i) 1 μg recombinant eIF4E was incubated with 0.2 mM biotinylated peptides in a total volume of 50 μl wash buffer (1×PBS/250 mM Kcl) for 1 h at 4° C. ii) 0.2 mM Hu4G or Hu4G YLL-AAA was incubated with 200 μg MRC5 cell lysate for 1 h at 4° C. in a total volume of 50 μl wash buffer. In all cases the biotinylated peptides and associated proteins were pulled down using streptavidin agarose. The proteins were separated by SDS PAGE and subjected to Western blotting using anti-eIF4E antibody. Detection was by ECL;
In order to study directly the role of eIF4E in cell transformation, a series of biotinylated synthetic peptides (Peptides synthesised by Cyclacel) corresponding to the eIF4E interacting domain (binding motif) of human eIF4G, and wheat eIF4G and alanine substituted peptides thereof were synthesised (see FIG. 12a) and tested for their capacity to interact with ^35S-Met labelled in vitro translated human eIF4E (NB. Peptides BP1 and BP1 YLM-AAA were not biotinylated). Peptides were coupled to streptavidin coated agarose beads by a N-terminus linked biotin group and washed in PBS/0.2% Tween 3× before being incubated for 1 hour at +4° C. with in vitro translated human eIF4E. Beads were washed as above and boiled for 5 min. in SDS loading buffer before the peptide bound proteins were separated on a 10% SDS gel. The bands were visualised by autoradiography.

For data set [1], the target named is T1, eIF4E in MRC5 cell lysate (Homo sapiens, UniProt P06730).
T1 construct: endogenous in cells; host or cells: MRC5
The data set is described as follows: pull-down of eIF4E from MRC5 cell lysate. Conditions: 0.2 mM peptide, 200 μg MRC5 cell lysate, 1 h at 4° C. The data set is classed as binding. Here is the method: as §1

The next data set deals with HaCaT cells. Nature of the data set: cytotoxic or cytostatic effect on HaCaT cells. In kind it is cell-based.
Data set [2] concerns MRC5 cells. The data set is described as follows: peptide-induced cell death (apoptosis) in MRC5 cells. The data set is classed as cell-based. An excerpt:
FIG. 8 is a table illustrating the induction of apoptosis by eIF4G peptides in MRC5 cells;
FIG. 9 is a summary of the results of inhibition of eIF4G(413-424)-induced apoptosis;

Data set [3] has as its system MRC5 cells. Nature of the data set: cell survival by MTT assay. In kind it is cell-based. Conditions: various concentrations, 72 h serum-starved MRC5 cells, FIGS. 13b,c,d. As for the experimental part: FIGS. 13a–d are graphs showing cell survival (% of control, untreated cells) as measured by MTT assay. a) Lane 1: 10 μM BP2 peptide added to serum-fed cells or Lane 2, 3, 4: 10 μM BP2 peptide added to 24 h, 48 h or 72 h serum-starved cells respectively. Lane 5: 10 μM BP2 YLL-AAA added to 72 h serum starved cells. Lane 6: 72 h serum starved cells incubated in 10% serum for 1 h prior to addition to 10 μM BP2 peptide. Lane 7: 72 h serum starved cells incubated with 100 μg/ml cycloheximide followed by a 1 h incubation with 10% serum prior to the addition of 10 μM BP2 peptide. In all cases the cells were then further incubated for 1 h in 0.1 mg/ml MTT. Cells were lysed in DMSO and absorbance was measured at […]. b–d) Varying concentrations of peptides were added to 72 h serum starved MRC5 cells. After 30 min incubation the cells were then further incubated for 1 h in 0.1 mg/ml MTT. Cells were lysed in DMSO and absorbance was measured at 570 nm.
On the technique in general: Tetrazolium dyes change colour on reduction, which living cells bring about.

Data set [4] relates to MRC5 cells. The data set is described as follows: TUNEL analysis. The data set is classed as cell-based. Conditions: 10 μM peptide, 10 min. As for the experimental part: (§2) MRC5 cells were incubated with 10 μM Hu4G peptide for 10 min. Cells visualised with fluorescein by fluorescence microscopy. […] 80% of cells incubated with the 10 μM Hu4G peptide fluoresced positive. d) Images of DAPI-stained MRC5 cells incubated with either 20 μM Hu4G or Hu4G YLL-AAA peptide for 40 min. Arrows indicate the position of a cell with either a condensed nucleus (top right) or a nucleus with a punctate appearance (bottom left). e) Visualisation of effects on the MPT. Serum-starved MRC5 cells were loaded with 0.1 μM JCl for 30 min prior to addition of 10 μM peptide. Changes in mitochondrial permeability were viewed by laser scanning confocal microscopy (krypton/argon laser) using identical setting. Green channel: excitation 488 nm/emission 522 nm. Red channel: excitation 568 nm/emission 585 nm. Channels were collected separately to avoid cross over. Images were taken 5 min after addition of the peptide;

Data set [5] has as its system MRC5 cells. The data set is described as follows: FACS analysis of propidium iodide-stained cells. The data set is classed as cell-based. Particulars: 20 μM, 40 min.
Data set [6] concerns MRC5 cells. The data set is described as follows: DAPI staining of cell nuclei. In kind it is cell-based. Conditions: 20 μM, 40 min. As for the experimental part:
as §2

Data set [7] has as its system MRC5 cells. Nature of the data set: mitochondrial permeability transition (JC1 dye, confocal microscopy). In kind it is cell-based. Conditions: 10 μM peptide, serum-starved MRC5 cells. As for the experimental part: as §2
An early event considered decisive in apoptosis is the opening of the mitochondrial permeability transition (MPT) pore (20–22). To characterise further the eIF4E-binding peptide-induced cell death, the development of the MPT was investigated in living MRC5 cells loaded with the fluorescent dye, JC1 (21).

Data set [8] relates to HaCaT, Swiss 3T3, RATI and IIeLa cells. The data set is described as follows: cell survival in other cell-types. The data set is classed as cell-based. Particulars: results not shown.
For data set [9], the system named is MRC5 cells. The data set is described as follows: [35S]methionine incorporation into protein. Conditions: serum deprived cells, 30 minutes. The data set is classed as cell-based. Here is the method: (§3) FIG. 16 illustrates that eIF4E binding peptide cell death is not through eIF4E's known role in mRNA translation. a) 72 h serum-starved MRC5 cells were treated with 100 μg/ml and 10 μg/ml cylcoheximide, 1 μg/ml and 0.1 μg/ml pactamycine or 10 μM Hu4G peptide for 2 h prior to a MTT assay. Cells were pulsed labelled with [^35S]methionine for 30 min after addition of the inhibitors/peptide. The incorporation of [^35S]methionine into protein was determined following hot trichloroacetic acid precipitation. b) 72 h serum-starved MRC5 cells were treated with 100 μg/ml cycloheximide (Chx), 1 μg/ml pactamycine (Pact) or c) MRC5 cells which had been starved of serum for 72 h were pre-incubated with 100 μg/ml cycloheximide or 1 μg/ml pactamycine for 30 min prior to addition of 10 μM Hu4G peptide. Cells were then further incubated for 1.5 h prior to a MTT assay. Results from three independent experiments (+/− SEM).
Serum deprived cells were treated with the general translation inhibitors Cyclohexamide or Pactamycin at indicated concentrations or the H4G peptide in the presence of 35S-Met for 30 minutes (see FIGS. 16a,b). Cells were lysed and the amount of translation was estimated by counting incorporated 35S-Met in precipitated protein fractions.

In data set [10] the test system is MRC5 cells. Nature of the data set: MTT assay with general translation inhibitors (FIG. 16). In kind it is cell-based. Conditions: serum deprived cells. Here is the method: as §3

Where no end group is shown, it is not given here.

T1 sequence (P06730 whole entry): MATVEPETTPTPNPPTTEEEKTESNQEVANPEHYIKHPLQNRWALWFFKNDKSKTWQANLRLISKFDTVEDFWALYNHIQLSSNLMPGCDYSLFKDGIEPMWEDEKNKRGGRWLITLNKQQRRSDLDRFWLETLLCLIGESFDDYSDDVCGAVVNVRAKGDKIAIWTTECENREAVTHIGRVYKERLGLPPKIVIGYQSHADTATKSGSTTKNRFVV
Sequence of recombinant human eIF4E (P06730 whole entry): as above

On to “Hu4G: biotinylated, penetratin-linked peptide of the eIF4E binding motif of human eIF4G (KKRYDREFLLGFRQIKIWFQNRRMKWKK; also: biotinylated)”, for which the “binding to recombinant human eIF4E in vitro” value with recombinant human eIF4E is “found to bind recombinant human eIF4E in vitro”. The “binding of eIF4E in cell lysates” value in [1] is listed as “bound eIF4E in cell lysates”. In the data set on HaCaT cells (60 h serum starved cells), the “time until cells began to die after peptide treatment” value is at most 15 min. In the data set with HaCaT cells (HaCaT cells, <24 h with 20 μM), the “effect with short treatment” value is on record as “no effect observed”. The “cytotoxic or cytostatic effect” value in the data set on HaCaT cells (selected cell lines) is “exhibited a cytotoxic or cytostatic effect on selected cell lines”. In addition, the “effect of limited serum treatment on sensitivity to the peptide” value in the data set on MRC5 cells [2] (FIG. 9) was “Resistance”. Further, in the data set on MRC5 cells [2] (serum starved cell lines, FIG. 8), the “cell death (possibly by apoptosis)” value is listed as “caused rapid cell death”. In the data set on MRC5 cells [3], the “cell death / cell viability” value is reported as “rapid, dose-dependent, cell death”. The “cells fluoresced positive (TUNEL)” value in the data set with MRC5 cells [4] amounted to 80%. Moreover, the DNA profile entry with MRC5 cells [5] was “shift in the DNA profile from G0/1 to sub G0/1”. Besides, in the data set on MRC5 cells [6], the nuclear condensation entry is “signs of nuclear condensation”. In addition, in the data set on MRC5 cells [7], the “changes in JC1 fluorescence (MPT pore opening)” value is recorded as “rapid increase” and the “time to increase in green fluorescence with loss of orange fluorescence” value is on record as at most 5 min. Also, the cell survival entry in [8] was “rapid cell death”. The “incorporation of 35S-Met (translation)” value with MRC5 cells [9] is “do not incorporate 35S-Met”. Also, in the data set with MRC5 cells [10], the cell killing entry is “they die”.
